Assay results published in PMC9664868, “Dephospho-Coenzyme A Kinase Is an Exploitable Drug Target against Plasmodium falciparum: Identification of Selective Inhibitors by High-Throughput Screening of a Large Chemical Compound Library” (Antimicrobial Agents and Chemotherapy, 2022).

Legend:
PfDPCK = PfDPCK (Plasmodium falciparum, UniProt Q8IL34); experiment: PfDPCK inhibition, enzyme-coupled fluorescence ADP detection assay (HTS and IC50 determination); assay type: biochemical; details: Table 2, PfDPCK inhibitor scaffolds Gr4, Gr5, Gr8; read-out: IC50
Chain of PfDPCK (Q8IL34 entry or part of it): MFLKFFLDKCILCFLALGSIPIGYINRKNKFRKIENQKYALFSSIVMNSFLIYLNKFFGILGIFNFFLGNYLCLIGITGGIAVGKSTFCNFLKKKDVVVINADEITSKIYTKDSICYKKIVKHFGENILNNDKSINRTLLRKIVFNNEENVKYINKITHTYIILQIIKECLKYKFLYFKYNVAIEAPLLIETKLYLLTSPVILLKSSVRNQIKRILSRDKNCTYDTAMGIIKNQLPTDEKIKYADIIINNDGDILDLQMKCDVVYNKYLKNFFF
Description: High-throughput screening against recombinant PfDPCK was performed using the Drug Discovery Initiative (DDI) full library, available from The University of Tokyo, composed of approximately 210,000 compounds. The primary assay was performed on 1,536-well white plate format with a final volume of 2 μL/well, containing 10 μM test compounds using a Multidrop Combi reagent dispenser (Thermo Fisher Scientific, Waltham, MA). The reaction was conducted in the assay buffer described above with 100 μM ATP and 50 μM dephospho-CoA. The assay was carried out at room temperature for 4 h in a closed plastic container with wet tissues. The reaction was stopped, and produced ADP was quantified using an enzyme-coupled fluorescence ADP detection assay, using PHERAstar microplate reader (BMG Labtech, Offenburg, Germany) with excitation at 540 nm and emission at 590 nm, as previously described ([17]). The inhibition level was calculated as the percentage inhibition of DPCK activity with each compound compared to the activity with only dimethyl sulfoxide (DMSO) as control (no inhibition) and that with no enzyme as 100% inhibition. IC50 values of the hit compounds were determined under the same assay conditions for the screening: Z′ factor, signal-to-background ratio (S/B), signal-to-noise ratio (S/N), and coefficient of variation (CV) were calculated to estimate the quality of screening system as previously described ([18], [38]).
The primary hits were reassayed in quadruplicate (n = 4) as in the primary screening. We next tested the confirmed secondary hits to exclude false positives that inhibit coupled fluorescence assay, but not PfDPCK. After exclusion of false positives, all tertiary hits were tested against human HsCOASY in the counterassay to exclude compounds that inhibit both PfDPCK and HsCOASY. The compounds showing >10% inhibition against HsCOASY were excluded from further studies. The IC50 values of the hit compounds were determined under the same assay conditions described as above for the primary screening, with the serially diluted compounds at 20, 10, 2.5, 0.5, and 0.1 μM at final concentrations. The assay was conducted in quadruplicate for each dilution, and IC50 values were calculated using GraphPad Software (San Diego, California USA).

[1] = test system: P. falciparum drug-sensitive 3D7 strain; experiment: Erythrocytic-stage parasite growth inhibition, diaphorase-coupled LDH assay, 3D7; assay type: cell-based, Plasmodium falciparum; details: Plasmodium falciparum, 3D7; Table S1; means ± SEM; read-out: IC50 (μM) Pf cell 3D7
Description: (§1) Selected hit compounds were also tested against erythrocytic-stage parasites of P. falciparum drug-sensitive 3D7 and drug-resistant Dd2 strains ([39]). For the phenotypic assay, parasite cultures were synchronized with 5% (wt/vol) D-sorbitol as previously described ([40]). A synchronized culture containing ring-stage parasites of 0.3% parasitemia was initiated with a culture volume of 25 μL/well on a 384-well plate. A series of diluted compounds (at final concentrations of 50, 10, 2, 0.4, and 0.08 μM) were used to calculate IC50 values. Mefloquine at 50 μM and atovaquone at 20 μM were used as no-growth control (100% inhibition). After 72 h of incubation, parasite growth was measured by diaphorase-coupled lactate dehydrogenase (LDH) assay as previously described ([41]). Absorbance at 650 nm was measured using SpectraMax Paradigm multimode microplate reader (Molecular Devices, San Jose, CA, USA). The IC50 values were calculated as described above.

[2] = test system: P. falciparum drug-resistant Dd2 strain; experiment: Erythrocytic-stage parasite growth inhibition, diaphorase-coupled LDH assay, Dd2; assay type: cell-based, Plasmodium falciparum; details: Plasmodium falciparum, DD2; Table S1; means ± SEM; read-out: IC50 (μM) Pf cell Dd2
Description: as §1

HsCOASY = target: T1, HsCOASY (Homo sapiens, UniProt Q13057); experiment: HsCOASY counterassay; assay type: biochemical; details: reciprocal plot analysis
T1 construct: His tag (pCold1 vector); made in house; host or cells: Escherichia coli BL21Star (DE3)
T1 sequence (Q13057 1-564): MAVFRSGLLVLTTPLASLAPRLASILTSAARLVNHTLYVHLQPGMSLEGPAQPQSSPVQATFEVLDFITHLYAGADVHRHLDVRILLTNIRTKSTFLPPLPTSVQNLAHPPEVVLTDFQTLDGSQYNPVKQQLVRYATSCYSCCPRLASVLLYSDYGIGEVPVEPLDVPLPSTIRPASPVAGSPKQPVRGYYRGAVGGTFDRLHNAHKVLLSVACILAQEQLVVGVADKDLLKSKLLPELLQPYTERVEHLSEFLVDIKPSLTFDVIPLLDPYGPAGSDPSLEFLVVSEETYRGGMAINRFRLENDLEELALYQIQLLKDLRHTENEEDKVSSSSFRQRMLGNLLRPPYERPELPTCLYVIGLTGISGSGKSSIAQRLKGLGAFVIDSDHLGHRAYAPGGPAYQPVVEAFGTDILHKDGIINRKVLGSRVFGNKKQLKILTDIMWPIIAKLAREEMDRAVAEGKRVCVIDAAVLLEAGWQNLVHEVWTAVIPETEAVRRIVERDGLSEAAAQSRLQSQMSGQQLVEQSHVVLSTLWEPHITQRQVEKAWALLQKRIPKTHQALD
Description: PfDPCK and HsCOASY activity was measured by quantifying ADP produced in the reaction by a coupling assay using the ADP Hunter Plus assay kit (DiscoverX, USA) according to the manufacturer's instructions. Briefly, enzymatic reactions were carried out in a 20-μL mixture of assay buffer containing 15 mM HEPES, 20 mM NaCl, 1 mM EGTA, 0.02% Tween 20, 10 mM MgCl2, 0.1% bovine gamma globulin, 50 ng of recombinant PfDPCK or HsCOASY, 4 to 256 μM dephospho-CoA, and 5 to 300 μM ATP on a black microplate. All reactions were performed for 2 h, reagents A and B were added, and they were then reincubated for 60 min at 30°C. After reactions were terminated by addition of ADP Hunter Stop solution, the fluorescent signal was measured using SpectraMax Paradigm (Molecular Devices, CA, USA) at excitation and emission wavelengths of 530 and 590 nm, respectively. The kinetic parameters were calculated using the nonlinear regression function using the single saturating concentrations of the substrates by the GraphPad Prism software (GraphPad Software Inc., San Diego, CA). The experiments were repeated three times in triplicate using proteins purified from independent cultures. […]
The primary hits were reassayed in quadruplicate (n = 4) as in the primary screening. We next tested the confirmed secondary hits to exclude false positives that inhibit coupled fluorescence assay, but not PfDPCK. […]

Q: For `CC(C)(C)c1cc(C(=O)Cn2c(NCCO)nc3ccccc32)cc(C(C)(C)C)c1O` [Compound A-15], which IC50 (PfDPCK) is on record?
A: 1.93 ± 0.04 µM

Q: What about the IC50 [1] of the same compound?
A: 9.78 ± 0.23 µM

Q: What about the IC50 [2] of the same compound?
A: 9.26 ± 0.26 µM

Q: And the “inhibition of HsCOASY” value (HsCOASY)?
A: inhibits PfDPCK, but not HsCOASY
